In patent US9062048B2, “Cyclohexyl-azetidinyl antagonists of CCR2” (Janssen Pharmaceutica NV, priority 2010, dated 2015):

Molecular target: CCR2 (Homo sapiens (Human), UniProt P41597)
Experiment: MCP-1 Receptor Binding Assay in THP-1 Cells;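 note: THP-1 is a human monocytic cell line, and nonspecific binding was defined with 1 µM unlabeled MCP-1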
Settings: 0.5 nM 125I labeled MCP-1, 2 hours at 30° C., read-out: Inhibition of MCP-1 Binding IC50 MCP1B

CCR2, sequence (P41597 whole entry): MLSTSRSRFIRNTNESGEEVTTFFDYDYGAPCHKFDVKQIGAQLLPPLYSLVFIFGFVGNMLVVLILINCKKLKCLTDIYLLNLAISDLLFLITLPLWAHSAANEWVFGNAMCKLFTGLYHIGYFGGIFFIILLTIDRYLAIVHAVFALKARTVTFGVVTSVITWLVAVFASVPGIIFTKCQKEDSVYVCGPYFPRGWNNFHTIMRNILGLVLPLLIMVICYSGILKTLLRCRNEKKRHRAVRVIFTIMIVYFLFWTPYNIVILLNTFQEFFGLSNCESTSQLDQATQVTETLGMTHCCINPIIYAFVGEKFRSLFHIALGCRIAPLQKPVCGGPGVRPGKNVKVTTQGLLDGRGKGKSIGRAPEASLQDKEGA

Row | Structure (SMILES) | IC50
1 | O=C(CNc1ncnc2ccc(C(F)(F)F)cc12)NC1CN([C@H]2CC[C@@H](C3CCOC(=O)N3)CC2)C1 (stereo partly drawn) [Example 17, N-(1-((1R,4s)-4-(2-oxo-1,3-oxazinan-4-yl)cyclohexyl)azetidin-3-yl)-2-((6-(trifluoromethyl)quinazolin-4-yl)amino)acetamide] | 58 nM
2 | O=C(CNc1ncnc2ccc(C(F)(F)F)cc12)NC1CN([C@H]2CC[C@@H](CN3CCCCC3=O)CC2)C1 [Example 54, N-(1-((1s,4s)-4-((2-oxopiperidin-1-yl)methyl)cyclohexyl)azetidin-3-yl)-2-((6-(trifluoromethyl)quinazolin-4-yl)amino)acetamide] | 720 nM
3 | C=C(C)C(O)[C@H]1CC[C@@H](N2CC(NC(=O)CNc3ncnc4ccc(C(F)(F)F)cc34)C2)CC1 (stereo partly drawn) [Example 96, N-(1-((1R,4s)-4-(1-hydroxy-2-methylallyl)cyclohexyl)azetidin-3-yl)-2-((6-(trifluoromethyl)quinazolin-4-yl)amino)acetamide] | 75 nM
4 | CC[C@@H](O)[C@H]1CC[C@H](N2CC(NC(=O)CNc3nncc4ccc(C(F)(F)F)cc34)C2)CC1 [Example 154, N-(1-((1R,4r)-4-((R)-1-hydroxypropyl)cyclohexyl)azetidin-3-yl)-2-((7-(trifluoromethyl)phthalazin-1-yl)amino)acetamide] | 6080 nM
5 | CCCC(O)[C@H]1CC[C@@H](N2CC(NC(=O)CNc3ncnc4ccc(C(F)(F)F)cc34)C2)CC1 (stereo partly drawn) [Example 90, N-(1-((1S,4s)-4-(1-hydroxybutyl)cyclohexyl)azetidin-3-yl)-2-((6-(trifluoromethyl)quinazolin-4-yl)amino)acetamide] | 13 nM
6 | O=C(CNc1ncnc2ccc(C(F)(F)F)cc12)N[C@H]1C[C@H](N2CCC(O)(c3cncs3)CC2)C1 [Example 162, N-((1r,3R)-3-(4-hydroxy-4-(thiazol-5-yl)piperidin-1-yl)cyclobutyl)-2-((6-(trifluoromethyl)quinazolin-4-yl)amino)acetamide] | 1220 nM
7 | O=C(CNc1ncnc2ccc(C(F)(F)F)cc12)NC1CN([C@H]2CC[C@@H](N3CCS(=O)(=O)CC3)CC2)C1 [Example 134, N-(1-((1s,4s)-4-(1,1-dioxidothiomorpholino)cyclohexyl)azetidin-3-yl)-2-((6-(trifluoromethyl)quinazolin-4-yl)amino)acetamide] | 72 nM
8 | O=C(CNc1ncnc2ccc(C(F)(F)F)cc12)NC1CN(C2CCCCC2)C1 [Example 101, N-(1-cyclohexylazetidin-3-yl)-2-((6-(trifluoromethyl)quinazolin-4-yl)amino)acetamide] | 63 nM
9 | O=C(CNc1ncnc2ccc(C(F)(F)F)cc12)NC1CN(C2CCC(C(F)(F)F)CC2)C1 (stereo not shown) [Example 123, N-(1-(4-(trifluoromethyl)cyclohexyl)azetidin-3-yl)-2-((6-(trifluoromethyl)quinazolin-4-yl)amino)acetamide] | 130 nM
10 | CC[C@@H](O)[C@H]1CC[C@@H](N2CC(NC(=O)CNc3nncc4ccc(C(F)(F)F)cc34)C2)CC1 (stereo in doubt) [Example 153, N-(1-((1R,4s)-4-((S)-1-hydroxypropyl)cyclohexyl)azetidin-3-yl)-2-((7-(trifluoromethyl)phthalazin-1-yl)amino)acetamide] | 15 nM
11 | CC(=O)N[C@H]1CC[C@@H](N2CC(NC(=O)CNc3ncnc4ccc(C(F)(F)F)cc34)C2)CC1 [Example 41, N-(1-((1s,4s)-4-acetamidocyclohexyl)azetidin-3-yl)-2-((6-(trifluoromethyl)quinazolin-4-yl)amino)acetamide] | 670 nM
12 | O=C(CNc1ncnc2ccc(C(F)(F)F)cc12)NC1CN([C@H]2CC[C@@H](C(O)C3CC3)CC2)C1 (stereo partly drawn) [Example 3, N-(1-((1S,4s)-4-(cyclopropyl(hydroxy)methyl)cyclohexyl)azetidin-3-yl)-2-((6-(trifluoromethyl)quinazolin-4-yl)amino)acetamide] | 22 nM
13 | CC(=O)N(C[C@H]1CC[C@@H](N2CC(NC(=O)CNc3ncnc4ccc(C(F)(F)F)cc34)C2)CC1)C(C)C [Example 115] | 340 nM
